Assay results published in patent US20060069132A1, “Azolecarboxamide herbicides” (priority 2004, published 2006).

Key:
barnyardgrass [1] = assay: Test A pre-/postemergence herbicide test; format: in vivo, Echinochloa crus-galli
In short: (§1)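 Plants are held in greenhouse about ten days after treatment, then compared with untreated controls and scored 0 (no effect) to 100 (complete control). Preemergence dosing is a directed soil spray on sown sandy loam; postemergence dosing is spray to runoff at 2–10 cm height.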

large crabgrass [2] = assay: Test A pre-/postemergence herbicide test; format: in vivo, Digitaria sanguinalis
In short: as §1

giant foxtail [3] = assay: Test A pre-/postemergence herbicide test; format: in vivo, Setaria faberi
In short: as §1

morningglory [4] = assay: Test A pre-/postemergence herbicide test; format: in vivo, Ipomoea spp.
In short: as §1

redroot pigweed = assay: Test A pre-/postemergence herbicide test; format: in vivo, Amaranthus retroflexus
In short: as §1

velvetleaf [5] = assay: Test A pre-/postemergence herbicide test; format: in vivo, Abutilon theophrasti
In short: as §1

barnyardgrass [6] = assay: Test B pre-/postemergence herbicide test; format: in vivo, Echinochloa crus-galli; conditions: for Barnyardgrass plant response rating: postemergence, visual rating, scale 0 (no effect) to 100 (complete control)
In short: (§2)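 Flooded paddy rice and barnyardgrass were treated at the 2-leaf stage; upland plantings received compound either on sown seed or on 1- to 4-leaf seedlings. All were kept 13–15 days in a greenhouse and scored visually, 0–100, relative to untreated plants.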

Surinam grass = assay: Test B pre-/postemergence herbicide test; format: in vivo, Urochloa decumbens; conditions: for Surinam Grass plant response rating: postemergence, visual rating, scale 0 (no effect) to 100 (complete control)
In short: (§3)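 Response was scored visually 13 to 15 days after treatment against untreated greenhouse controls, 0 meaning no effect and 100 complete control. Formulations (solvent mixture plus surfactant) went onto soil after planting, onto foliage of 1- to 4-leaf plants, and onto 2-leaf plants in a flooded paddy set including rice and barnyardgrass.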

cocklebur = assay: Test B pre-/postemergence herbicide test; format: in vivo, Xanthium strumarium; conditions: for Cocklebur plant response rating: postemergence, visual rating, scale 0 (no effect) to 100 (complete control)
In short: as §2

corn = assay: Test B pre-/postemergence herbicide test; format: in vivo, Zea mays; conditions: for Corn plant response rating: postemergence, visual rating, scale 0 (no effect) to 100 (complete control)
In short: as §3

large crabgrass [7] = assay: Test B pre-/postemergence herbicide test; format: in vivo, Digitaria sanguinalis; conditions: for Crabgrass, Large plant response rating: postemergence, visual rating, scale 0 (no effect) to 100 (complete control)
In short: as §3

giant foxtail [8] = assay: Test B pre-/postemergence herbicide test; format: in vivo, Setaria faberi; conditions: for Foxtail, Giant plant response rating: postemergence, visual rating, scale 0 (no effect) to 100 (complete control)
In short: as §3

lambsquarters = assay: Test B pre-/postemergence herbicide test; format: in vivo, Chenopodium album; conditions: for Lambsquarters plant response rating: postemergence, visual rating, scale 0 (no effect) to 100 (complete control)
In short: as §3

morningglory [9] = assay: Test B pre-/postemergence herbicide test; format: in vivo, Ipomoea coccinea; conditions: for Morningglory plant response rating: postemergence, visual rating, scale 0 (no effect) to 100 (complete control)
In short: as §2

pigweed = assay: Test B pre-/postemergence herbicide test; format: in vivo, Amaranthus retroflexus; conditions: for Pigweed plant response rating: postemergence, visual rating, scale 0 (no effect) to 100 (complete control)
In short: as §3

rice [10] = assay: Test B pre-/postemergence herbicide test; format: in vivo, Oryza sativa; conditions: preemergence
In short: as §3

velvetleaf [11] = assay: Test B pre-/postemergence herbicide test; format: in vivo, Abutilon theophrasti; conditions: for Velvetleaf plant response rating: postemergence, visual rating, scale 0 (no effect) to 100 (complete control)
In short: as §3

blackgrass = assay: Test B postemergence herbicide test; format: in vivo, Alopecurus myosuroides; conditions: postemergence, visual rating, scale 0 (no effect) to 100 (complete control)
In short: (§4)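 After treating 2-leaf paddy plants or 2–18 cm postemergence plants (1 to 4 leaves) with formulated chemical, researchers kept them in a greenhouse for 13–15 days. Effects were judged visually versus controls: 0 indicates none, 100 total control.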

wheat = assay: Test B postemergence herbicide test; format: in vivo, Triticum aestivum; parameters: key to Wheat plant response rating: 0 = no effect, 100 = complete control; conditions: postemergence, visual rating, scale 0 (no effect) to 100 (complete control)
In short: (§5)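 Treated at 2-leaf (paddy) or 1–4-leaf, 2–18 cm (postemergence); greenhouse 13–15 d; visual score vs control, 0 none to 100 complete control; dash = not tested.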

wild oat = assay: Test B postemergence herbicide test; format: in vivo, Avena fatua; conditions: postemergence, visual rating, scale 0 (no effect) to 100 (complete control)
In short: as §5

rice [12] = assay: Test B flooded paddy test; format: in vivo, Oryza sativa; conditions: 1000 g ai/ha, visual rating, scale 0 to 100 (0 no effect, 100 complete control), 13 to 15 days
In short: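 Postemergence plants were sprayed with formulated test chemicals at 2 to 18 cm height (1- to 4-leaf stage); paddy species were grown to the 2-leaf stage. After 13 to 15 days in a greenhouse, injury was rated visually against untreated controls on a 0–100 scale (0 = no effect, 100 = complete control).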

[13] = system: small flower umbrella sedge; assay: Test B flooded paddy test; format: in vivo, Cyperus difformis; conditions: 1000 g ai/ha, visual rating, scale 0 to 100 (0 no effect, 100 complete control), 13 to 15 days
In short: as §4

ducksalad = assay: Test B flooded paddy test; format: in vivo, Heteranthera limosa; conditions: 1000 g ai/ha, visual rating, scale 0 to 100 (0 no effect, 100 complete control), 13 to 15 days
In short: as §4

barnyardgrass [14] = assay: Test B flooded paddy test; format: in vivo, Echinochloa crus-galli; conditions: 1000 g ai/ha, visual rating, scale 0 to 100 (0 no effect, 100 complete control), 13 to 15 days
In short: as §4

[15] = Postemergence, 500 g ai/ha, 0 to 100 scale, 0 no effect, 100 complete control
[16] = Postemergence, 2000 g ai/ha, 0 to 100 scale, 0 no effect, 100 complete control
[17] = Preemergence, 2000 g ai/ha, visual rating, 0 to 100 scale (0 no effect, 100 complete control)
[18] = preemergence, 500 g ai/ha, visual injury, 0 to 100 scale (0 no effect, 100 complete control)
[19] = 125 g ai/ha, 0 = no effect, 100 = complete control, preemergence
[20] = 500 g ai/ha, visual rating 0-100, 0 no effect, 100 complete control, preemergence

Cc1nn(C(C)(C)C)cc1C(=O)Nc1cccc(OC(C)C)c1 [Compound 189]
80: Morningglory plant response rating (morningglory [9]; 125 g ai/ha)
20: Foxtail, Giant plant response rating (giant foxtail [3]; [17]) | Plant response rating, Surinam Grass (Surinam grass; [20]) | Surinam Grass plant response rating (Surinam grass; 500 g ai/ha) | Crabgrass, Large plant response rating (large crabgrass [7]; 500 g ai/ha) | Plant response rating, Morningglory (morningglory [9]; [20]) | Plant response rating, Velvetleaf (velvetleaf [11]; [20]) | Velvetleaf plant response rating (velvetleaf [11]; 125 g ai/ha) | Velvetleaf plant response rating (velvetleaf [11]; 500 g ai/ha)
30: Morningglory plant response rating (morningglory [4]; [17]) | Pigweed plant response rating (redroot pigweed; [15]) | Plant response rating, Barnyardgrass (barnyardgrass [6]; [20]) | Crabgrass, Large plant response rating (0 to 100 scale) (large crabgrass [7]; [19]) | Plant response rating, Lambsquarters (lambsquarters; [20]) | Pigweed plant response rating (pigweed; 125 g ai/ha)
45: Plant response rating, Pigweed (redroot pigweed; [16])
75: Crabgrass, Large plant response rating (large crabgrass [2]; [17])
10: Plant response rating, Barnyardgrass (barnyardgrass [1]; [16]) | Crabgrass, Large plant response rating (large crabgrass [2]; [15]) | Plant response rating, Crabgrass, Large (large crabgrass [2]; [16]) | Morningglory plant response rating (morningglory [4]; [15]) | Plant response rating, Morningglory (morningglory [4]; [16]) | Velvetleaf plant response rating (velvetleaf [5]; [18]) | Barnyardgrass plant response rating (barnyardgrass [6]; 500 g ai/ha) | Surinam Grass plant response rating (Surinam grass; 125 g ai/ha) | Cocklebur plant response rating (cocklebur; 500 g ai/ha) | Corn plant response rating (corn; 125 g ai/ha) | Corn plant response rating (corn; 500 g ai/ha) | Crabgrass, Large plant response rating (large crabgrass [7]; 125 g ai/ha) | Plant response rating, Foxtail, Giant (giant foxtail [8]; [20]) | Foxtail, Giant plant response rating (giant foxtail [8]; 500 g ai/ha) | Oat, Wild plant response rating (wild oat; 125 g ai/ha) | Oat, Wild plant response rating (wild oat; 500 g ai/ha)
60: Plant response rating, Crabgrass, Large (large crabgrass [7]; [20]) | Pigweed plant response rating (pigweed; 500 g ai/ha) | Barnyardgrass plant response rating (barnyardgrass [14])
0: Barnyardgrass plant response rating (barnyardgrass [1]; [15]) | Foxtail, Giant plant response rating (giant foxtail [3]; [15]) | Plant response rating, Foxtail, Giant (giant foxtail [3]; [16]) | Barnyardgrass plant response rating (0 to 100 scale) (barnyardgrass [6]; [19]) | Barnyardgrass plant response rating (barnyardgrass [6]; 125 g ai/ha) | Surinam Grass plant response rating (0 to 100 scale) (Surinam grass; [19]) | Cocklebur plant response rating (0 to 100 scale) (cocklebur; [19]) | Plant response rating, Cocklebur (cocklebur; [20]) | Cocklebur plant response rating (cocklebur; 125 g ai/ha) | Corn plant response rating (0 to 100 scale) (corn; [19]) | Plant response rating, Corn (corn; [20]) | Foxtail, Giant plant response rating (0 to 100 scale) (giant foxtail [8]; [19]) | Foxtail, Giant plant response rating (giant foxtail [8]; 125 g ai/ha) | Lambsquarters plant response rating (0 to 100 scale) (lambsquarters; [19]) | Rice plant response rating (0 to 100 scale) (rice [10]; 125 g ai/ha, 0 = no effect, 100 = complete control) | Velvetleaf plant response rating (0 to 100 scale) (velvetleaf [11]; [19]) | Blackgrass plant response rating (blackgrass; 125 g ai/ha) | Blackgrass plant response rating (blackgrass; 500 g ai/ha) | Wheat plant response rating (wheat; 125 g ai/ha) | Wheat plant response rating (wheat; 500 g ai/ha)
90: Morningglory plant response rating (morningglory [9]; 500 g ai/ha) | Pigweed plant response rating (0 to 100 scale) (pigweed; [19])
40: Pigweed plant response rating (redroot pigweed; [17]) | Rice plant response rating (rice [12])
70: Sedge, Umbrella plant response rating [13] | Ducksalad plant response rating (ducksalad)
25: Pigweed plant response rating (redroot pigweed; [18]) | Velvetleaf plant response rating (velvetleaf [5]; [17])
35: Barnyardgrass plant response rating (barnyardgrass [1]; [18])
100: Plant response rating, Pigweed (pigweed; [20])
5: Foxtail, Giant plant response rating (giant foxtail [3]; [18]) | Velvetleaf plant response rating (velvetleaf [5]; [15]) | Plant response rating, Velvetleaf (velvetleaf [5]; [16])
50: Lambsquarters plant response rating (lambsquarters; 125 g ai/ha) | Lambsquarters plant response rating (lambsquarters; 500 g ai/ha) | Plant response rating, Rice (rice [10]; 500 g ai/ha, visual rating 0-100, 0 no effect, 100 complete control)
15: Morningglory plant response rating (morningglory [4]; [18])
55: Crabgrass, Large plant response rating (large crabgrass [2]; [18])
65: Barnyardgrass plant response rating (barnyardgrass [1]; [17])
